Measurements as given in US11746103B2, “ALK-5 inhibitors and uses thereof” (Sumitomo Pharma Oncology, Inc., priority 2020, dated 2023).
pIC50: −log10 of the molar value.

Tests used:
EMT6 tumors [1] = test: Combination of EX-11 and abraxane in EMT6 TNBC syngeneic model; assay type: in vivo, mouse; conditions: abraxane 30 mg/kg IP Q7d; EX-11 150 mg/kg PO BID
Source text: Abraxane (product of Bristol Myers Squibb) was purchased from St Josef Hospital (Freiburg, Germany). The vehicle for abraxane was 0.9% NaCl.

[2] = tested on: bleomycin-induced lung fibrosis; test: Bleomycin-induced lung fibrosis study; assay type: in vivo, mouse
Source text: Fibrosis, the formation of excess connective tissue causing stromal hardening and scar formation is a hallmark of cancer. Up to 20% of cancers are linked to chronic, inflammation-related fibrosis, including hepatocellular, gastric, esophageal, head and neck, colon, pancreatic, cervix, and vulvar cancers. The contribution of fibrosis for early cancer development remains unclear; however, in some advanced solid tumors it is believed that fibrotic tissues act like a barrier, preventing therapeutic agents like chemotherapy or biologics from penetrating the tumor tissue. Additionally, strong fibrotic tissue is thought to contribute to excluding immune cells from entering the tumor core, creating immune excluded or immune desert phenotypes. To evaluate the anti-fibrotic properties of Ex-11, a prophylactic model of bleomycin-induced lung fibrosis in male C57BL/6 mice was utilized, and various endpoints evaluated.
All mice in this study were 8-week-old male C57BL/6 mice purchased from Taconic. On Day −2 prior to bleomycin administration, all animals were weighed and distributed into groups with 10 mice each (Table 18) such that each group of animals contained animals of similar body weights.
On day 0, animals were treated with 1.5 U/kg bleomycin (Blenoxane catalog number NDC 61703-323-22, Hospira Pharmaceutical) intratracheally, except Group 1, which was administered normal saline via oropharyngeal route to serve as the healthy naïve control group. Prophylactic treatment was administered from one day prior to bleomycin administration to day 21 post bleomycin administration. On Day 21, only the morning dose was administered. Animals were harvested on day 21 and lung weights were measured. Body weights of all mice was recorded at least three times a week beginning on Day −2 and ending on the day of harvest, Day 21. Pirfenidone was used as positive control compound, as it is an FDA-approved drug for the treatment of idiopathic pulmonary fibrosis (IPF) in humans. All compounds were prepared in 10% Tween-20 in water; a homogenous suspension was formulated using a magnetic stir bar.
At the end of the study, total lung tissues were weighed and fixed for histological examination, which was conducted by a trained pathologist blinded to the treatment groups. Specifically, whole lungs from each mouse were paraffin-embedded in a single block. Two slides from each block were sectioned to the depth of the mainstem bronchi (near the center of each lobe) and stained with either hematoxylin and eosin (H&E) or Masson's trichrome (MT). Glass slides were evaluated using light microscopy by a board-certified veterinary pathologist. Lung sections were scored according to the methods described below, evaluating five randomly chosen fields in each tissue. Fixed lungs were sectioned, and consecutive tissue sections were stained with H&E or MT. Various pathological scoring parameters were used to determine the average Ashcroft score, as well as average inflammation and collagen deposition indicating fibrosis.
Parameter of scoring formalin fixed lung sections:
Modified Ashcroft Score: H&E-stained lung sections were scored according to the modified Ashcroft scale. Scores for five representative 200× microscopic fields per sample were averaged to obtain a mean score for each animal. […]

KGN cells (FOXL2 C134W) = test: FOXL2 cell viability assay (Cell Titer Glo), KGN; assay type: cell-based, human
Procedure: EX-11 was submitted to a cell viability assay in KGN and COV434 cell lines. KGN cells are derived from FOXL2^C134W AGCT of a person with a recurrent metastatic GCT. COV434 cells are derived from FOXL2WT JGCT of a person with a recurrent metastatic GCT. The cells were seeded in triplicate in 96 well culture plates and treated with nine, 3-fold dilutions of EX-11 or DMSO for 6 days (KGN) or 3 days (Cov434), which represented 3 cell doublings, respectively. Viability was assessed by Cell Titer Glo (Promega).

[3] = tested on: human CD4+CD45RA+ naïve T cells; test: In vitro Treg differentiation study; assay type: cell-based; conditions: CD3/CD28+IL2+TGFβ, 5 days
Procedure: The effect of EX-11 on Treg differentiation was evaluated using human CD4^+CD45RA^+ naïve T cells from Lonza. CD4^+/CD45RA^+ naïve T cells were treated with EX-11, CD3/CD28 ([…] Technologies) and 10 ng/ml of IL-2 (Thermo Fisher Scientific) with or without 5 ng/ml TGFβ (R&D Systems) in ImmunoCult™-XF T cell expansion medium for 5 days. Flow cytometry was performed using anti-human FoxP3 staining kit (BD biosciences) to evaluate the frequency of CD4^+CD25^+Foxp3^+ Treg cells.

EMT6 tumors [4] = test: Immunohistochemistry (CD31, CD45) of EMT6 tumors; assay type: in vivo, mouse
Source text: EX-11 is an ALK5 inhibitor that has been proposed to affect multiple processes in the tumor microenvironment through downregulation of TGF-β signaling, including vasculature remodeling and leukocyte infiltration. The objective of this study was to compare the levels of CD31 and CD45, subject to different treatment conditions in 4T1, EMT6, and S91 tumors. CD31 is an established marker of vascular differentiation, and CD45 is an established marker of leukocytes.
For IHC analyses, tumors from three syngeneic models of cancer were used: • 1) Example L: 4T1 (triple-negative breast cancer [TNBC]); Balb/c mice • 2) Example K: EMT6 (TNBC); Balb/C mice • 3) Example M: S91 (melanoma); DBA/2 mice
Tumors were fixed in formalin for 48 hours, then stored in […] prior to paraffin embedding. Embedded blocks were sectioned at […] and placed on glass slides for IHC staining.
Leica Biosystems Bond Software and Leica Bond Rx Research Stainer were used per protocol to stain tissue sections. […] Images were manually scored by a pathologist, blinded to treatment information. […] CD45 was scored by calculating the number of CD45-positive cells divided by the total number of viable nucleated cells within the whole tumor region(s). CD31 density was scored by calculating the total number of CD31 positive vessels divided by the whole tumor area (mm^2).

Cloudman S91 melanoma = Cloudman S91 melanoma syngeneic study; conditions: single agents
Procedure: The objective of this study was to evaluate preclinically the in vivo therapeutic efficacy of EX-11+/−anti-PD-1 therapy for the treatment of subcutaneous Cloudman S91 melanoma model in DBA/2 mice.
Female, DBA/2 mice (aged 7-9 weeks) were inoculated subcutaneously in the right flank region with Cloudman S91 melanoma cells (2×10^5) in 0.1 ml of PBS. Once the mean tumor size reached approximately 100 mm^3 (day 19), 60 mice were randomized to 6 treatment arms (10 mice per arm).
The anti-PD-1 inhibitor used in this study was a product of Crownbio/OEM (Cat #: CVP033, Lot #: 0920L765). The vehicle for the anti-BD-1 inhibitor was PBS. The drug was injected intraperitoneally (i.p.), bi-weekly (BIW) for 3 weeks. The vehicle for EX-11 was 1000 tween-20, 900% ddH2O. The vehicle used for EX-11 was also used for the “Vehicle” arm of the study. EX-11 and the vehicle were delivered via oral gavage (p.o.), bi-daily (BID) for 21 days.
Body weights and tumor volumes were measured 3 times per week. Tumor volumes were measured in two dimensions using a caliper, and the volume was expressed in mm^3 using the formula: V=(L×W×W)/2, where V is tumor volume, L is tumor length (the longest tumor dimension) and W is tumor width (the longest tumor dimension perpendicular to L).
The study was terminated 50 days post-inoculation. […]

[5] = tested on: HLA class I expression in KGN cells; test: HLA expression in KGN cell line (flow cytometry); assay type: cell-based, human; conditions: 72 hours
Procedure: KGN cells were treated with 30 nM EX-11, 300 nM EX-11 or DMSO in the absence or presence of 1 ng/mL TGFβ for 72 hours. Cells were then washed, collected and incubated in the dark at 4° C. for 1 hour with a pan HLA class I antibody conjugated to PE (BD Pharmingen cat #560168). The cells were washed and analyzed by flow cytometry on an Attune N×T.

## Cc1cccc2c(Nc3ccnc(Nc4cccc(N5CCOCC5)c4)n3)cnnc12 [EX-11, N4-(8-methylcinnolin-4-yl)-N2-(3-morpholinophenyl)pyrimidine-2,4-diamine]
EMT6 tumors [1]
  tumor volume compared to vehicle: did not show efficacy compared to vehicle
[2]; 75 mg/kg twice a day
  body weight loss: No severe weight loss of over 5-10%
[2]; H&E, vs bleomycin/vehicle
  average Ashcroft score: highly statistically significant reduction in the average score
  average lung inflammation score: highly statistically significant reduction in the average score
[2]; Masson's trichrome, vs bleomycin/vehicle
  average lung fibrosis/collagen deposition score: highly statistically significant reduction in the average score
[2]; day 21, vs bleomycin/vehicle
  lung weight normalized to total animal weight (lung weight index): highly statistically significant
  total lung weight: significant decrease in lung weight
KGN cells (FOXL2 C134W)
  sensitivity of KGN cells relative to COV434 cells: > 70 fold
KGN cells (FOXL2 C134W); Homo sapiens, 144 h, KGN cells, 6 days
  pIC50: 6.85
[3]; 30 nM
  Treg frequency (CD4+CD25+Foxp3+ Treg cells as percentage of cells not treated with TGFβ): 480%
[3]; 300 nM
  Treg frequency (CD4+CD25+Foxp3+ Treg cells as percentage of cells not treated with TGFβ): 342%
[3]; 3000 nM
  Treg frequency (CD4+CD25+Foxp3+ Treg cells as percentage of cells not treated with TGFβ): 126%
EMT6 tumors [4]
  CD31 staining (blood vessel density): no difference in CD31 staining
EMT6 tumors [4]; vs anti-PD-1 and vehicle groups
  CD45 (percentage of CD45+ cells): increased
Cloudman S91 melanoma
  survival compared with the vehicle control: did not exhibit an increase in survival
[5]; 30 nM, 300 nM + 1 ng/mL TGFβ
  HLA class I expression repressed by TGFβ stimulation: reversed
[5]; absence of TGFβ
  increase of HLA class I expression: up to 2 fold
